According to patent US11834451B2 (priority 2021, dated 2023):
pEC50: −log10 of the molar value.

Columns and labels:
[1] = in vitro; settings: human
[2] = tested on: CVB3 Nancy virus; experiment: microbe, parasite or virus in culture; format: cell-based, coxsackievirus B3 (CVB3); settings: Enterovirus B, CVB3, Vero, read-out: EC50, Anti-CVB3 in Vero cells
[3] = tested on: EV-D68; experiment: microbe, parasite or virus in culture; format: cell-based, enterovirus D68 (EV-D68); settings: Enterovirus D, EVD68, RD, read-out: EC50, Anti-EV-D68 US/KY/14-18953 in RD cells
[4] = tested on: EV-A71; experiment: microbe, parasite or virus in culture; format: cell-based, enterovirus A71 (EV-A71); settings: Enterovirus A, EVA71, RD, read-out: EC50, Anti-EV-A71 Tainan/4643/1998 in RD cells
[5] = tested on: EV-D68, EV-A71, and CVB3; experiment: organism not typed; format: cell-based
[6] = tested on: Vero cells; settings: African green monkey
[7] = tested on: RD cells; settings: human
[8] = CC50, in RD cells (Anti-EV-A71)

Row | SMILES | CC50 [1, 8] | pEC50 [2] | pEC50 [3] | pEC50 [4] | EC50 values in words (summary across viruses) [5] | CC50 [6] | pEC50 ([5]; read-out: EC50 (text summary, virus not singled out)) | CC50 ([1]; CC50, in RD cells (Anti-EV-D68)) | CC50 [7]
1 | COCCNC(=O)c1cc(C2CC2)nc2c1cnn2C(C)C [Compound 7a, 6-cyclopropyl-N-(2-methoxyethyl)-1-(propan-2-yl)-1H-pyrazolo[3,4-b]pyridine-4-carboxamide] | 178 µM | – | – | – | – | – | – | – | –
2 | CC(C)n1ncc2c(C(=O)NCCN3CCCC3)cc(C3CC3)nc21 [Compound 7b, 6-cyclopropyl-1-(propan-2-yl)-N-[2-(pyrrolidin-1-yl)ethyl]-1H-pyrazolo[3,4-b]pyridine-4-carboxamide] | 46.5 µM | 6.70 | 7.00 | 6.70 | – | – | – | – | –
3 | CCN(CC)CCNC(=O)c1cc(C2CC2)nc2c1cnn2C(C)C [Compound 7c, 6-cyclopropyl-N-[2-(diethylamino)ethyl]-1-(propan-2-yl)-1H-pyrazolo[3,4-b]pyridine-4-carboxamide] | – | 6.30 | 6.40 | 6.52 | submicromolar | – | – | – | –
4 | CC(C)n1ncc2c(C(=O)NC3CNC3)cc(C3CC3)nc21 [Compound 7e, N-(azetidin-3-yl)-6-cyclopropyl-1-(propan-2-yl)-1H-pyrazolo[3,4-b]pyridine-4-carboxamide] | – | – | 5.85 | – | – | – | – | – | –
5 | CC(CN(C)C)NC(=O)c1cc(C2CC2)nc2c1cnn2C(C)C (stereo not shown) [Compound 7f, 6-cyclopropyl-N-[1-(dimethylamino)propan-2-yl]-1-(propan-2-yl)-1H-pyrazolo[3,4-b]pyridine-4-carboxamide] | 72.6 µM | 7.40 | 7.00 | 7.00 | – | > 300 µM | – | – | –
6 | CC(C)n1ncc2c(C(=O)NC3CCN(C)C3)cc(C3CC3)nc21 (stereo not shown) [Compound 7g, 6-cyclopropyl-N-(1-methylpyrrolidin-3-yl)-1-(propan-2-yl)-1H-pyrazolo[3,4-b]pyridine-4-carboxamide] | 20.7 µM | 7.00 | 7.00 | 7.00 | – | – | 7.00 | 20.7 µM | –
7 | CC(C)n1ncc2c(C(=O)NCCN)cc(C3CC3)nc21 [Compound 7i, N-(2-aminoethyl)-6-cyclopropyl-1-(propan-2-yl)-1H-pyrazolo[3,4-b]pyridine-4-carboxamide] | – | 6.05 | 6.40 | 6.40 | – | – | – | – | –
8 | CC(CN)NC(=O)c1cc(C2CC2)nc2c1cnn2C(C)C (stereo not shown) [Compound 7j, N-(1-aminopropan-2-yl)-6-cyclopropyl-1-(propan-2-yl)-1H-pyrazolo[3,4-b]pyridine-4-carboxamide] | – | 6.52 | 6.52 | 6.22 | – | – | – | – | –
9 | CCN(CC)CCCNC(=O)c1cc(C2CC2)nc2c1cnn2C(C)C [Compound 7k, 6-cyclopropyl-N-[3-(diethylamino)propyl]-1-(propan-2-yl)-1H-pyrazolo[3,4-b]pyridine-4-carboxamide] | – | 5.77 | 5.72 | 5.21 | – | – | – | – | –
10 | CC(C)n1ncc2c(C(=O)NCCCN(C)C)cc(C3CC3)nc21 [Compound 7l, 6-cyclopropyl-N-[3-(dimethylamino)propyl]-1-(propan-2-yl)-1H-pyrazolo[3,4-b]pyridine-4-carboxamide] | – | 6.40 | 5.92 | 5.74 | – | > 200 µM | – | – | –
11 | CNCCCNC(=O)c1cc(C2CC2)nc2c1cnn2C(C)C [Compound 7m, 6-cyclopropyl-N-[3-(methylamino)propyl]-1-(propan-2-yl)-1H-pyrazolo[3,4-b]pyridine-4-carboxamide] | 183 µM | 5.80 | 5.77 | 5.28 | – | – | – | – | –
12 | CC(C)c1cc(C(=O)NCCO)c2cnn(C(C)C)c2n1 [Compound 10b, N-(2-hydroxyethyl)-1,6-bis(propan-2-yl)-1H-pyrazolo[3,4-b]pyridine-4-carboxamide] | – | – | – | – | – | – | – | – | > 100 µM
13 | CC(C)c1cc(C(=O)NCCN)c2cnn(C(C)C)c2n1 [Compound 10e, N-(2-aminoethyl)-1,6-bis(propan-2-yl)-1H-pyrazolo[3,4-b]pyridine-4-carboxamide] | 170 µM | 6.05 | 6.22 | 6.22 | – | – | – | – | –
